Key:
[1] = test system: heroin-induced hyperactivity; assay: Locomotor activity test of heroin-induced hyperactivity; format: in vivo, mice; details: 10 mg/kg IV, 10 min prior to heroin 2.5 mg/kg IP; n=8
Experimental: (§1) All mice were allowed ad libitum access to food and water and maintained on a 12 h light/12 h dark cycle, with the lights on at 8:00 a.m. at a room temperature of 21-22° C. Experiments were performed in a same colony room in accordance with the Guide for the Care and Use of Laboratory Animals as adopted and promulgated by the National Institutes of Health. The animal protocol was approved by the IACUC (Institutional Animal Care and Use Committee) at the University of Kentucky.

heroin-induced lethality = assay: Protection of mice against acute toxicity (lethality) of a lethal dose of heroin; format: in vivo; details: 10 min before heroin 25 mg/kg IV, n=6
Experimental: as §1
Heroin-induced acute toxicity was characterized in this study by the occurrence of death. […] Following the heroin administration, mice were immediately placed in containers for observation. The presence or absence of death was recorded for 6 hours following heroin administration.
(§2) Heroin-induced acute toxicity was characterized by the lethality (occurrence of death). For the protection experiments, a single dose of ethopropazine was administrated (IV) prior to administration of a lethal dose (LD100) of heroin (e.g. 25 mg/kg, IV). At 10 min after IV administration of ethopropazine or saline (negative control), the mice were given a lethal dose (LD100) of heroin. The protection experiments were performed under various dose conditions (n=6 for each scenario).

BChE = BChE (Homo sapiens, UniProt P06276); details: read-out: IC50 for BChE; cited from earlier work
[2] = 1 mg/kg IV
Experimental: as §2

BChE, sequence (P06276 29-602): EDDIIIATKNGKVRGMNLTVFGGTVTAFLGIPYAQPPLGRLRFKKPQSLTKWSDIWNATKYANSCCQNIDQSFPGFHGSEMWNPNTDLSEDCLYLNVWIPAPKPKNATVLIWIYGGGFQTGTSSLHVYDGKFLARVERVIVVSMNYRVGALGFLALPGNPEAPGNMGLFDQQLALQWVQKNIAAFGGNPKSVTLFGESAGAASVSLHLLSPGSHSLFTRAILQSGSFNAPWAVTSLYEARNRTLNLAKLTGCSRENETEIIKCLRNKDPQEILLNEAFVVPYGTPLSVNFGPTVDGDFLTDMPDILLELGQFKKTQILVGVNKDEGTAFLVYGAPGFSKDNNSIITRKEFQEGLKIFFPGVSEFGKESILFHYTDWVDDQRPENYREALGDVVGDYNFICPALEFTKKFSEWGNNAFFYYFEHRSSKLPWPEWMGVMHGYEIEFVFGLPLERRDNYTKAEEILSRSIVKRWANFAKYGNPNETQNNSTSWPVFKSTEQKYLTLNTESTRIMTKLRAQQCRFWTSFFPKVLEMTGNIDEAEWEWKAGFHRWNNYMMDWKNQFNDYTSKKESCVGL

Row | SMILES | effect on heroin-induced hyperactivity (total distance traveled) [1] | protection against heroin-induced lethality (heroin-induced lethality; ethopropazine 1 mg/kg IV) | protection against heroin-induced lethality (heroin-induced lethality; ethopropazine 10 mg/kg IV) | IC50 (BChE) | adverse effect observed in mice [2] | protection against heroin-induced lethality (heroin-induced lethality; naltrexone 0.3 mg/kg IV)
1 | CCN(CC)C(C)CN1c2ccccc2Sc2ccccc21 (stereo not drawn) [ethopropazine] | significantly attenuated heroin-induced hyperactivity | partial protection | protected all mice | 210 to 300 nM |  | 
2 | O=C1CC[C@@]2(O)[C@H]3Cc4ccc(O)c5c4[C@@]2(CCN3CC2CC2)[C@H]1O5 [naltrexone] |  |  |  |  | not able to stand and could hardly move at all | partial protection
